The test system of this assay is BDF1 mice, colon carcinoma 38 sc, T/C %. Briefly: NCI In Vivo Anticancer Drug Screen. Data for tumor model Colon Carcinoma 38 (subcutaneous) in B6D2F1 (BDF1) mice. In a few lines: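 T/C readout: treated group (T) measurement over vehicle control group (C) measurement. Endpoint is survival or tumor size in mice bearing a transplanted tumor.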
Setting [1] is: endpoint: median tumor weight (est.), dose: 100.0 mg/kg/injection, schedule: Q07DX002 (ip), vehicle: saline with Tween-80, higher = larger tumour.
The mark [2] stands for this setting: endpoint: median tumor weight (est.), dose: 200.0 mg/kg/injection, schedule: Q07DX002 (ip), vehicle: saline with Tween-80, higher = larger tumour.
Setting [3] is: endpoint: median tumor weight (est.), dose: 12.5 mg/kg/injection, schedule: Q07DX002 (ip), vehicle: saline, higher = larger tumour.
Setting [4] is: endpoint: median tumor weight (est.), dose: 25.0 mg/kg/injection, schedule: Q07DX002 (ip), vehicle: saline, higher = larger tumour.
The mark [5] stands for this setting: endpoint: median tumor weight (est.), dose: 50.0 mg/kg/injection, schedule: Q07DX002 (ip), vehicle: saline, higher = larger tumour.
The mark [6] stands for this setting: endpoint: median tumor weight (est.), dose: 200.0 mg/kg/injection, schedule: Q07DX002 (ip), vehicle: saline, higher = larger tumour.
[7] abbreviates: endpoint: median tumor weight (est.), dose: 50.0 mg/kg/injection, schedule: Q07DX002 (ip), vehicle: Klucel (hydroxypropylcellulose) (HPC), higher = larger tumour.
Setting [8] is: endpoint: median tumor weight (est.), dose: 100.0 mg/kg/injection, schedule: Q07DX002 (ip), vehicle: Klucel (hydroxypropylcellulose) (HPC), higher = larger tumour.
Where [9] appears, read: endpoint: median tumor weight (est.), dose: 100.0 mg/kg/injection, schedule: Q07DX002 (ip), vehicle: saline, higher = larger tumour.
[10] abbreviates: endpoint: median tumor weight (est.), dose: 12.5 mg/kg/injection, schedule: Q07DX002 (ip), vehicle: saline with Tween-80, higher = larger tumour.
The mark [11] stands for this setting: endpoint: median tumor weight (est.), dose: 50.0 mg/kg/injection, schedule: Q07DX002 (ip), vehicle: saline with Tween-80, higher = larger tumour.

Structures are written as SMILES. Values joined by “and” are separate entries in the source; they are usually repeats but may differ in a detail not shown here. Equal entries are not always repeated. Records with an inconclusive call do not appear.

Take `O=C1c2ccccc2C(=O)c2c1cn1c2Cc2ccccc2C1`: the T/C (endpoint: median tumor weight (est.), dose: 5.0 mg/kg/injection, schedule: Q01DX005 (iv), vehicle: other, higher = larger tumour) was 36 % of control; the T/C (endpoint: median tumor weight (est.), dose: 10.0 mg/kg/injection, schedule: Q01DX005 (iv), vehicle: other, higher = larger tumour) is 36 % of control; the T/C (endpoint: median tumor weight (est.), dose: 18.0 mg/kg/injection, schedule: Q07DX002 (ip), vehicle: Klucel (hydroxypropylcellulose) (HPC), higher = larger tumour) is 219 % of control; the T/C (endpoint: median tumor weight (est.), dose: 18.75 mg/kg/injection, schedule: Q07DX002 (ip), vehicle: Klucel (hydroxypropylcellulose) (HPC), higher = larger tumour) is 63 % of control; the T/C (endpoint: median tumor weight (est.), dose: 20.0 mg/kg/injection, schedule: Q01DX005 (iv), vehicle: other, higher = larger tumour) is 36 % of control; the T/C (endpoint: median tumor weight (est.), dose: 37.0 mg/kg/injection, schedule: Q07DX002 (ip), vehicle: Klucel (hydroxypropylcellulose) (HPC), higher = larger tumour) is 89 % of control. Besides, the T/C by setting is: (endpoint: median tumor weight (est.), dose: 37.5 mg/kg/injection, schedule: Q07DX002 (ip), vehicle: Klucel (hydroxypropylcellulose) (HPC), higher = larger tumour) 63 % of control; (endpoint: median tumor weight (est.), dose: 40.0 mg/kg/injection, schedule: Q01DX005 (iv), vehicle: other, higher = larger tumour) 23 % of control; (endpoint: median tumor weight (est.), dose: 75.0 mg/kg/injection, schedule: Q07DX002 (ip), vehicle: Klucel (hydroxypropylcellulose) (HPC), higher = larger tumour) 38 % of control and 41 % of control and 59 % of control; (endpoint: median tumor weight (est.), dose: 75.0 mg/kg/injection, schedule: Q07DX002 (iv), vehicle: other, higher = larger tumour) 95 % of control; (endpoint: median tumor weight (est.), dose: 100.0 mg/kg/injection, schedule: Q07DX002 (ip), vehicle: other, higher = larger tumour) 74 % of control; under setting [1], 63 % of control. Moreover, the T/C is 120 % of control (endpoint: median tumor weight (est.), dose: 100.0 mg/kg/injection, schedule: Q07DX002 (iv), vehicle: other, higher = larger tumour); 41 % of control (endpoint: median tumor weight (est.), dose: 150.0 mg/kg/injection, schedule: Q07DX002 (ip), vehicle: other, higher = larger tumour); 41 % of control (endpoint: median tumor weight (est.), dose: 200.0 mg/kg/injection, schedule: Q07DX002 (ip), vehicle: other, higher = larger tumour); 61 % of control under setting [2]; 8 % of control and 13 % of control (endpoint: median tumor weight (est.), dose: 300.0 mg/kg/injection, schedule: Q07DX002 (ip), vehicle: Klucel (hydroxypropylcellulose) (HPC), higher = larger tumour).

`COc1ccc(C(Cn2ccnc2)Sc2ccc(Cl)c(Cl)c2)cc1` (centres undefined): the T/C is 63 % of control and 87 % of control (endpoint: median tumor weight (est.), dose: 25.0 mg/kg/injection, schedule: Q07DX002 (ip), vehicle: saline with Tween-80, higher = larger tumour); 114 % of control under setting [1].

Turning to `C[N+](C)(C)c1ncnc2c1ncn2C1CCCO1` (centres undefined), the T/C under setting [3] is 110 % of control; the T/C under setting [4] is 84 % of control; the T/C under setting [5] is 61 % of control and 77 % of control; the T/C under setting [6] is 65 % of control and 89 % of control.

As to `COc1ccc2[nH]c3ccc4cc[n+](CCN5CCC(C6CCN(CC[n+]7ccc8ccc9[nH]c%10ccc(OC)cc%10c9c8c7)CC6)CC5)cc4c3c2c1`, the T/C is 79 % of control (endpoint: median tumor weight (est.), dose: 25.0 mg/kg/injection, schedule: Q07DX002 (ip), vehicle: Klucel (hydroxypropylcellulose) (HPC), higher = larger tumour); 70 % of control under setting [7]; 56 % of control under setting [8].

Regarding `CNc1nc2c(N)ncnc2n1C1OC(CO)C(O)C1O` (centres undefined), the T/C under setting [3] was 103 % of control.

Take `CNC(=O)OCc1c(COC(=O)NC)c(C)n(-c2ccc(OC)cc2)c1C`: the T/C runs as follows: (endpoint: median tumor weight (est.), dose: 6.25 mg/kg/injection, schedule: Q07DX002 (ip), vehicle: Klucel (hydroxypropylcellulose) (HPC), higher = larger tumour) 82 % of control; (endpoint: median tumor weight (est.), dose: 12.5 mg/kg/injection, schedule: Q07DX002 (ip), vehicle: Klucel (hydroxypropylcellulose) (HPC), higher = larger tumour) 69 % of control; under setting [7], 111 % of control; under setting [8], 68 % of control and 93 % of control; (endpoint: median tumor weight (est.), dose: 200.0 mg/kg/injection, schedule: Q07DX002 (ip), vehicle: Klucel (hydroxypropylcellulose) (HPC), higher = larger tumour) 49 % of control.

Regarding `CN(C)CCC(=O)C(=Cc1ccc(O)cc1)C(=O)CCN(C)C`, the T/C under setting [4] was 97 % of control, the T/C under setting [5] was 112 % of control and the T/C under setting [9] was 77 % of control.

In the case of `COc1cccc2c1C(=O)c1c(O)c3c(c(O)c1C2=O)CC(O)(C(=O)CO)CC3OC1CC(N)C(O)C(C)O1` (centres undefined), the T/C reads like this: (endpoint: median survival time, dose: 41.0 mg/kg/injection, schedule: Q07DX002 (iv), vehicle: saline, higher = longer survival) 93 % of control; (endpoint: median survival time, dose: 64.0 mg/kg/injection, schedule: Q07DX002 (iv), vehicle: saline, higher = longer survival) 104 % of control; (endpoint: median survival time, dose: 100.0 mg/kg/injection, schedule: Q07DX002 (iv), vehicle: saline, higher = longer survival) 122 % of control; (endpoint: median survival time, dose: 155.0 mg/kg/injection, schedule: Q07DX002 (iv), vehicle: saline, higher = longer survival) 124 % of control; (endpoint: median tumor weight (est.), dose: 6.25 mg/kg/injection, schedule: Q07DX002 (ip), vehicle: water, higher = larger tumour) 110 % of control; (endpoint: median tumor weight (est.), dose: 12.5 mg/kg/injection, schedule: Q07DX002 (ip), vehicle: water, higher = larger tumour) 100 % of control. In addition, the T/C (endpoint: median tumor weight (est.), dose: 20.25 mg/kg/injection, schedule: Q07DX002 (ip), vehicle: saline, higher = larger tumour) was 51 % of control; the T/C under setting [4] is 81 % of control and 86 % of control; the T/C (endpoint: median tumor weight (est.), dose: 25.0 mg/kg/injection, schedule: Q07DX002 (ip), vehicle: water, higher = larger tumour) was 100 % of control; the T/C (endpoint: median tumor weight (est.), dose: 40.5 mg/kg/injection, schedule: Q07DX002 (ip), vehicle: saline, higher = larger tumour) was 123 % of control; the T/C (endpoint: median tumor weight (est.), dose: 81.0 mg/kg/injection, schedule: Q07DX002 (ip), vehicle: saline, higher = larger tumour) was 52 % of control; the T/C (endpoint: median tumor weight (est.), dose: 81.0 mg/kg/injection, schedule: Q07DX002 (ip), vehicle: water, higher = larger tumour) was 56 % of control. Also, the T/C by setting is: (endpoint: median tumor weight (est.), dose: 100.0 mg/kg/injection, schedule: Q07DX002 (ip), vehicle: water, higher = larger tumour) 83 % of control; (endpoint: median tumor weight (est.), dose: 162.0 mg/kg/injection, schedule: Q07DX002 (ip), vehicle: saline, higher = larger tumour) 44 % of control; under setting [6], 19 % of control; (endpoint: median tumor weight (est.), dose: 200.0 mg/kg/injection, schedule: Q07DX002 (ip), vehicle: water, higher = larger tumour) 53 % of control; (endpoint: median tumor weight (est.), dose: 324.0 mg/kg/injection, schedule: Q07DX002 (ip), vehicle: saline, higher = larger tumour) 14 % of control.

As for `Nc1cc2[nH]cnc2c(=O)[nH]1`, the T/C by setting is: under setting [3], 66 % of control; under setting [4], 168 % of control; under setting [9], 113 % of control; under setting [6], 99 % of control; (endpoint: median tumor weight (est.), dose: 400.0 mg/kg/injection, schedule: Q07DX002 (ip), vehicle: saline, higher = larger tumour) 117 % of control.

For `CS(=O)(=O)OCCCNCCCOS(C)(=O)=O`, the T/C is 43 % of control (endpoint: median tumor weight (est.), dose: 9.3 mg/kg/injection, schedule: Q07DX003 (ip), vehicle: saline, higher = larger tumour); 73 % of control (endpoint: median tumor weight (est.), dose: 18.75 mg/kg/injection, schedule: Q07DX003 (ip), vehicle: saline, higher = larger tumour); 58 % of control (endpoint: median tumor weight (est.), dose: 37.5 mg/kg/injection, schedule: Q07DX003 (ip), vehicle: saline, higher = larger tumour); 36 % of control (endpoint: median tumor weight (est.), dose: 75.0 mg/kg/injection, schedule: Q07DX003 (ip), vehicle: saline, higher = larger tumour).

For the compound `CC(=O)OC(C)C1C2=C(C(=O)CC1(C)O)C(=O)c1c(ccc(-c3ccc4c(c3O)C(=O)C3=C(C4=O)C(C(C)OC(C)=O)C(C)(O)CC3=O)c1O)C2=O` (centres undefined), the T/C (endpoint: median tumor weight (est.), dose: 1.85 mg/kg/injection, schedule: Q07DX002 (ip), vehicle: saline with Tween-80, higher = larger tumour) was 155 % of control; the T/C (endpoint: median tumor weight (est.), dose: 3.75 mg/kg/injection, schedule: Q07DX002 (ip), vehicle: saline with Tween-80, higher = larger tumour) is 109 % of control; the T/C (endpoint: median tumor weight (est.), dose: 7.5 mg/kg/injection, schedule: Q07DX002 (ip), vehicle: saline with Tween-80, higher = larger tumour) is 107 % of control; the T/C (endpoint: median tumor weight (est.), dose: 30.0 mg/kg/injection, schedule: Q07DX002 (ip), vehicle: saline with Tween-80, higher = larger tumour) was 122 % of control.

On to `CC(C)=CCNc1ncnc2c1ncn2C1OC(CO)C(O)C1O` (centres undefined), for which the T/C under setting [10] was 61 % of control; the T/C under setting [3] was 102 % of control; the T/C under setting [4] is 89 % of control; the T/C under setting [11] is 96 % of control; the T/C under setting [1] is 44 % of control; the T/C under setting [9] is 97 % of control. Besides, the T/C under setting [2] is 75 % of control.

Take `C=C1C(=O)OCC1(C(=O)OCC)C(=O)OCC`: the T/C was 42 % of control and 62 % of control and 66 % of control under setting [10]; 88 % of control under setting [11].

Source of the values: PubChem BioAssay AID212 (DTP/NCI, 2004).
